Results reported in patent US12252524B2, “GIP/GLP1 co-agonist compounds” (Eli Lilly and Company, priority 2018, dated 2025).
Numbered stars: 1 amine (or outer) side, 2 acyl side, 3 side chain; on linkers, the order of the positions; unused ones are H or OH. Square brackets hold non-standard residues; d marks the D form. Side chains are listed from the residue outwards. Peptide text beside a SMILES is read from it. * marks the point of attachment. C20 diacid = O=C(O)CCCCCCCCCCCCCCCCCCC(=O)*; C18 diacid = O=C(O)CCCCCCCCCCCCCCCCC(=O)*; γGlu = O=C(O)[C@H](CCC(=O)[*:2])N[*:1]; AEEA = NCCOCCOCC(=O)O; Aib = CC(C)(N)C(=O)O

Key:
human GLP-1R = human GLP-1R (Homo sapiens, UniProt P43220); assay: [125I]-GLP-1 binding (SPA), human GLP-1 receptor; parameters: expressed in transfected cells; crude membranes; conditions: read-out: hGLP1R Ki, (nM) (SEM, n)
human GLP-1R, sequence (P43220 24-463): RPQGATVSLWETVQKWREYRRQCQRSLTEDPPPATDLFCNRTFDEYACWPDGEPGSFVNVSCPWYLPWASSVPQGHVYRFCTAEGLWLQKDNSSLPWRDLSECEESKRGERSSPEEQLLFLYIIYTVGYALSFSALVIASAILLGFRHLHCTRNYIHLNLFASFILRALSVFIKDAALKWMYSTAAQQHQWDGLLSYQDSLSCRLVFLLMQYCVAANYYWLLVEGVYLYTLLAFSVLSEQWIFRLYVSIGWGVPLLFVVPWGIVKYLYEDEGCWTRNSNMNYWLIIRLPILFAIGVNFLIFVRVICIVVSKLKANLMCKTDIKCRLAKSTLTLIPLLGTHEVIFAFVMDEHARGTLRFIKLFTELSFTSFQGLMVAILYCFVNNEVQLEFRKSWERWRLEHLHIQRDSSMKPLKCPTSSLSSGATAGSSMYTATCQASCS
Method in brief: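 Crude-membrane binding assay; one membrane prep included 1 mM MgCl2 and 25 units/ml DNAse I during lysis. Assay buffer at pH 7.4 contains 0.1% (w/v) bacitracin and 0.003% (w/v) TWEEN-20. Ki is reported as geometric mean.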

[1] = molecular target: human GLP-1 receptor (GLP-1R) (Homo sapiens, UniProt P43220); assay: cAMP pharmacological functional assay in presence of casein, hGLP-1R; format: cell-based; conditions: HEK293 cells expressing hGLP-1R, 0.1% Casein, geometric mean; read-out: hGLP1R cAMP Rel EC50 nM (SEM, n)
human GLP-1 receptor (GLP-1R), sequence (P43220 24-463): as above

human Gcg receptor = molecular target: T1, human Gcg receptor (Homo sapiens, UniProt P47871); assay: [125I]-Glucagon binding (SPA), human Gcg receptor; conditions: read-out: hGLcgR Ki, nM (SEM, n)
T1 construct: expressed in transfected cells; crude membranes
T1 sequence (P47871 26-477): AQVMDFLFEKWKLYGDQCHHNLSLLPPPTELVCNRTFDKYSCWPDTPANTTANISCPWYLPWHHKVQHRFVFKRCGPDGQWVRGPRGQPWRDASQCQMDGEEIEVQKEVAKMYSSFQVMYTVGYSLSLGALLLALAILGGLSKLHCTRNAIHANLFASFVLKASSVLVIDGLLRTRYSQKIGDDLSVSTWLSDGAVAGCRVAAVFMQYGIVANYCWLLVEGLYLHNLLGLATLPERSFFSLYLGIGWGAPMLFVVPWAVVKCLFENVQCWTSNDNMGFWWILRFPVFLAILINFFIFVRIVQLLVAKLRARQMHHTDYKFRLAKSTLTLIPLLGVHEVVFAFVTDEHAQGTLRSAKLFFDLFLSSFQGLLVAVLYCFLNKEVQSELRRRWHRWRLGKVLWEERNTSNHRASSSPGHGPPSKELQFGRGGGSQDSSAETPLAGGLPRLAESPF
Method in brief: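 Scintillation counts are taken after membranes and WGA beads incubate and settle for 12 hours at room temperature. Buffer is 25 mM HEPES, pH 7.4, with CaCl2, MgCl2, bacitracin and Tween-20. Ki values, from four-parameter IC50 fits, are geometric means over independent days.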

[2] = molecular target: T2, gastric inhibitory peptide receptor (GIPR) (Homo sapiens, UniProt P48546); assay: cAMP pharmacological functional assay in presence of casein, hGIPR; format: cell-based; conditions: HEK293 cells expressing hGIPR, 0.1% Casein, geometric mean; read-out: hGIPR cAMP Rel EC50 nM (SEM, n)
T2 sequence (P48546 22-466): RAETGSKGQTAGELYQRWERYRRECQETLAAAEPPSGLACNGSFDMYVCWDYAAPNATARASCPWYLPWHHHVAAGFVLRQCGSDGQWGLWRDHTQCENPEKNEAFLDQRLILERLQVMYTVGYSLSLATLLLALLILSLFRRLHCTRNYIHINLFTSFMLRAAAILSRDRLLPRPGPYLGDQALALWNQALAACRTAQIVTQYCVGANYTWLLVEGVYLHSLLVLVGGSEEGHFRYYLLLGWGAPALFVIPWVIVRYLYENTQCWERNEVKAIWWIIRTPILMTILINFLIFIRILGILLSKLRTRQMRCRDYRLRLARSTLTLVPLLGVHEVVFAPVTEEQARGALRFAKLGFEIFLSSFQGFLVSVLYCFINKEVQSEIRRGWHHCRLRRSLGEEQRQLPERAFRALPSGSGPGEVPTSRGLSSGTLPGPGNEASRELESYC

human GIP receptor = molecular target: T3, human GIP receptor (Homo sapiens, UniProt P48546); assay: [125I]-GIP binding (SPA), human GIP receptor; conditions: read-out: hGIPR Ki, nM (SEM, n)
T3 construct: expressed in transfected cells; crude membranes
T3 sequence (P48546 22-466): T2 sequence (P48546 22-466)

| SMILES | Ki (human GLP-1R) [nM] | EC50 [1] [nM] | Ki (human Gcg receptor) [nM] | EC50 [2] [nM] | Ki (human GIP receptor) [nM] |
| --- | --- | --- | --- | --- | --- |
| CC[C@H](C)[C@H](NC(=O)[C@H](CC(C)C)NC(=O)[C@H](Cc1ccc(O)cc1)NC(=O)[C@H](CCC(=O)O)NC(=O)[C@@H](NC(=O)[C@H](Cc1ccccc1)NC(=O)[C@H](C)NC(=O)[C@H](CCC(N)=O)NC(=O)[C@H](CCC(N)=O)NC(=O)[C@H](C)NC(=O)[C@H](CCCCNC(=O)COCCOCCNC(=O)COCCOCCNC(=O)CC[C@H](NC(=O)CCCCCCCCCCCCCCCCCCC(=O)O)C(=O)O)NC(=O)[C@H](CCCCN)NC(=O)[C@H](CC(=O)O)NC(=O)[C@H](CC(C)C)NC(=O)[C@H](CC(C)C)NC(=O)[C@@H](NC(=O)[C@H](CO)NC(=O)[C@H](Cc1ccc(O)cc1)NC(=O)[C@H](CC(=O)O)NC(=O)[C@H](CO)NC(=O)[C@@H](NC(=O)[C@H](Cc1ccccc1)NC(=O)[C@@H](NC(=O)CNC(=O)[C@H](CCC(=O)O)NC(=O)C(C)(C)NC(=O)[C@@H](N)Cc1ccc(O)cc1)[C@@H](C)O)[C@@H](C)O)[C@@H](C)CC)[C@@H](C)CC)C(=O)N[C@@H](CCC(=O)O)C(=O)NCC(=O)NCC(=O)N1CCC[C@H]1C(=O)N[C@@H](CO)C(=O)N[C@@H](CO)C(=O)NCC(=O)N[C@@H](C)C(=O)N1CCC[C@H]1C(=O)N1CCC[C@H]1C(=O)N1CCC[C@H]1C(=O)N[C@@H](CO)C(N)=O [Example 254] (H-Y[Aib]EGTFTSDYSILLDKK([AEEA-AEEA-γGlu-C20 diacid])AQQAFIEYLIEGGPSSGAPPPS-NH2) | 2.58 | 0.0553 | 148 | 0.215 | 0.108 |
| CC[C@H](C)[C@H](NC(=O)[C@H](CC(C)C)NC(=O)[C@H](Cc1ccc(O)cc1)NC(=O)[C@H](CCC(=O)O)NC(=O)[C@@H](NC(=O)[C@](C)(Cc1ccccc1)NC(=O)[C@H](C)NC(=O)C(C)(C)NC(=O)[C@H](CCC(N)=O)NC(=O)[C@H](C)NC(=O)[C@H](CCCCNC(=O)COCCOCCNC(=O)COCCOCCNC(=O)CC[C@H](NC(=O)CCCCCCCCCCCCCCCCCCC(=O)O)C(=O)O)NC(=O)[C@H](CCCCN)NC(=O)[C@H](CC(=O)O)NC(=O)[C@H](CC(C)C)NC(=O)[C@H](CC(C)C)NC(=O)[C@@H](NC(=O)[C@H](CO)NC(=O)[C@H](Cc1ccc(O)cc1)NC(=O)[C@H](CC(=O)O)NC(=O)[C@H](CO)NC(=O)[C@@H](NC(=O)[C@H](Cc1ccccc1)NC(=O)[C@@H](NC(=O)CNC(=O)[C@H](CCC(=O)O)NC(=O)C(C)(C)NC(=O)[C@@H](N)Cc1ccc(O)cc1)[C@@H](C)O)[C@@H](C)O)[C@@H](C)CC)[C@@H](C)CC)C(=O)N[C@@H](CCC(=O)O)C(=O)NCC(=O)NCC(=O)N1CCC[C@H]1C(=O)N[C@@H](CO)C(=O)N[C@@H](CO)C(=O)NCC(=O)N[C@@H](C)C(=O)N1CCC[C@H]1C(=O)N1CCC[C@H]1C(=O)N1CCC[C@H]1C(=O)N[C@@H](CO)C(N)=O [Example 67] | 10.2 | 0.447 | 270 | 0.0913 | 0.061 |
| CC[C@H](C)[C@H](NC(=O)[C@H](CCCCN)NC(=O)[C@H](CC(=O)O)NC(=O)[C@H](CC(C)C)NC(=O)[C@H](CC(C)C)NC(=O)[C@@H](NC(=O)[C@H](CO)NC(=O)[C@H](Cc1ccc(O)cc1)NC(=O)[C@H](CC(=O)O)NC(=O)[C@H](CO)NC(=O)[C@@H](NC(=O)[C@H](Cc1ccccc1)NC(=O)[C@@H](NC(=O)CNC(=O)[C@H](CCC(=O)O)NC(=O)C(C)(C)NC(=O)[C@@H](N)Cc1ccc(O)cc1)[C@@H](C)O)[C@@H](C)O)[C@@H](C)CC)C(=O)N[C@@H](C)C(=O)N[C@@H](CCC(N)=O)C(=O)NC(C)(C)C(=O)N[C@@H](C)C(=O)N[C@@H](Cc1ccccc1)C(=O)N[C@H](C(=O)N[C@@H](CCC(=O)O)C(=O)N[C@@H](Cc1ccc(O)cc1)C(=O)N[C@@H](CC(C)C)C(=O)N[C@H](C(=O)N[C@@H](CCC(=O)O)C(=O)NCC(=O)N[C@@H](CCCCNC(=O)COCCOCCNC(=O)COCCOCCNC(=O)CC[C@H](NC(=O)CCCCCCCCCCCCCCCCCCC(=O)O)C(=O)O)C(=O)N1CCC[C@H]1C(=O)N[C@@H](CO)C(=O)N[C@@H](CO)C(=O)NCC(=O)N[C@@H](C)C(=O)N1CCC[C@H]1C(=O)N1CCC[C@H]1C(=O)N1CCC[C@H]1C(=O)N[C@@H](CO)C(N)=O)[C@@H](C)CC)[C@@H](C)CC [Example 39] (H-Y[Aib]EGTFTSDYSILLDKIAQ[Aib]AFIEYLIEGK([AEEA-AEEA-γGlu-C20 diacid])PSSGAPPPS-NH2) | 16.8 | 1.92 | 161 | 0.133 | 0.0499 |
| CC[C@H](C)[C@H](NC(=O)[C@H](CC(C)C)NC(=O)[C@H](Cc1ccc(O)cc1)NC(=O)[C@H](CCC(=O)O)NC(=O)[C@@H](NC(=O)[C@H](Cc1ccccc1)NC(=O)[C@H](C)NC(=O)C(C)(C)NC(=O)[C@H](CCC(N)=O)NC(=O)[C@H](C)NC(=O)[C@H](CCCCNC(=O)COCCOCCNC(=O)COCCOCCNC(=O)CC[C@H](NC(=O)CCCCCCCCCCCCCCCCCCC(=O)O)C(=O)O)NC(=O)[C@H](CCCCN)NC(=O)[C@H](CC(=O)O)NC(=O)[C@H](CC(C)C)NC(=O)[C@H](CC(C)C)NC(=O)[C@@H](NC(=O)[C@H](CO)NC(=O)[C@H](Cc1ccc(O)cc1)NC(=O)[C@H](CC(=O)O)NC(=O)[C@H](CO)NC(=O)[C@@H](NC(=O)[C@H](Cc1ccccc1)NC(=O)[C@@H](NC(=O)CNC(=O)[C@H](CCC(=O)O)NC(=O)[C@]1(C)CCCN1C(=O)[C@@H](N)Cc1ccc(O)cc1)[C@@H](C)O)[C@@H](C)O)[C@@H](C)CC)[C@@H](C)CC)C(=O)N[C@@H](CCC(=O)O)C(=O)NCC(=O)NCC(=O)N1CCC[C@H]1C(=O)N[C@@H](CO)C(=O)N[C@@H](CO)C(=O)NCC(=O)N[C@@H](C)C(=O)N1CCC[C@H]1C(=O)N1CCC[C@H]1C(=O)N1CCC[C@H]1C(=O)N[C@@H](CO)C(N)=O [Example 87] | 1.79 | 0.0801 | 278 | 0.0945 | 0.034 |
| CC[C@H](C)[C@H](NC(=O)[C@H](CC(C)C)NC(=O)[C@H](Cc1ccc(O)cc1)NC(=O)[C@H](CCC(=O)O)NC(=O)[C@@H](NC(=O)[C@H](Cc1ccccc1)NC(=O)[C@@H](NC(=O)C(C)(C)NC(=O)[C@H](CCC(N)=O)NC(=O)[C@H](C)NC(=O)[C@H](CCCCNC(=O)COCCOCCNC(=O)COCCOCCNC(=O)CC[C@H](NC(=O)CCCCCCCCCCCCCCCCC(=O)O)C(=O)O)NC(=O)[C@H](CCCCN)NC(=O)[C@H](CC(=O)O)NC(=O)[C@H](CC(C)C)NC(=O)[C@H](CC(C)C)NC(=O)[C@@H](NC(=O)[C@H](CO)NC(=O)[C@H](Cc1ccc(O)cc1)NC(=O)[C@H](CC(=O)O)NC(=O)[C@H](CO)NC(=O)[C@@H](NC(=O)[C@H](Cc1ccccc1)NC(=O)[C@@H](NC(=O)CNC(=O)[C@H](CCC(=O)O)NC(=O)C(C)(C)NC(=O)[C@@H](N)Cc1ccc(O)cc1)[C@@H](C)O)[C@@H](C)O)[C@@H](C)CC)[C@@H](C)O)[C@@H](C)CC)C(=O)N[C@@H](CCC(=O)O)C(=O)NCC(=O)NCC(=O)N1CCC[C@H]1C(=O)N[C@@H](CO)C(=O)N[C@@H](CO)C(=O)NCC(N)=O [Example 321] (H-Y[Aib]EGTFTSDYSILLDKK([AEEA-AEEA-γGlu-C18 diacid])AQ[Aib]TFIEYLIEGGPSSG-NH2) | 4.2 | 0.204 | 770 | 0.0752 | 0.064 |
| CC[C@H](C)[C@H](NC(=O)[C@H](CC(C)C)NC(=O)[C@H](Cc1ccc(O)cc1)NC(=O)[C@H](CCC(=O)O)NC(=O)[C@@H](NC(=O)[C@H](Cc1ccccc1)NC(=O)[C@H](C)NC(=O)C(C)(C)NC(=O)[C@H](CCC(N)=O)NC(=O)[C@H](C)NC(=O)[C@H](CCCCNC(=O)COCCOCCNC(=O)COCCOCCNC(=O)CC[C@H](NC(=O)CCCCCCCCCCCCCCCCC(=O)O)C(=O)O)NC(=O)[C@H](CCC(=O)O)NC(=O)[C@H](CC(=O)O)NC(=O)[C@H](CC(C)C)NC(=O)[C@H](CC(C)C)NC(=O)[C@@H](NC(=O)[C@H](CO)NC(=O)[C@H](Cc1ccc(O)cc1)NC(=O)[C@H](CC(=O)O)NC(=O)[C@H](CO)NC(=O)[C@@H](NC(=O)[C@H](Cc1ccccc1)NC(=O)[C@@H](NC(=O)CNC(=O)[C@H](CCC(=O)O)NC(=O)C(C)(C)NC(=O)[C@@H](N)Cc1ccc(O)cc1)[C@@H](C)O)[C@@H](C)O)[C@@H](C)CC)[C@@H](C)CC)C(=O)N[C@@H](CCC(=O)O)C(=O)NCC(=O)NCC(N)=O [Example 269] (H-Y[Aib]EGTFTSDYSILLDEK([AEEA-AEEA-γGlu-C18 diacid])AQ[Aib]AFIEYLIEGG-NH2) | 7.1 | 0.0595 | > 1100 | 0.257 | 0.152 |
